Source: patent publication US20210340178A1, “NONAPEPTIDE PREVENTING INCREASED HYPERPERMEABILITY OF VASCULAR ENDOTHELIUM” (FEDERALNOYE GOSUDARSTVENNOE BUDGETNOE UCHREZHDENIE …, priority 2018, published 2021)
Entries after “also recorded” stand apart in the source; their conditions may differ. Read-outs that look alike come from different tables or passages of the source. Non-standard residues stand in square brackets, D forms with d. Residues, ends and D or L forms follow the SMILES beside them. NMeR = CN[C@@H](CCCNC(=N)N)C(=O)O

How the values were obtained:
[1] = test system: EA.hy926 endothelial cell monolayer; test: Thrombin-mediated FITC-dextran permeability through endothelial cell monolayer; format: cell-based; conditions: peptide 100 μM, 60 min preincubation; thrombin 100 nM; 70 kDa FITC-dextran
Description: FIG. 3. The thrombin-mediated FITC-dextran permeability through the EA.hy926 endothelial cell monolayer in the presence of myosin light chain kinase peptide inhibitors. Thrombin (100 nM) was added at 0 min, the cells were preincubated for 60 min with MLCK peptide inhibitors (100 μM). Data are presented as mean±SD, n=5. p<0.05 for all data points within the 20-180 min time course range as compared to the thrombin-stimulated control.
Effects of the claimed peptide (PIK7), the prototype (PIK2), and the analogue (MLC11-19) on the endothelial permeability was assayed in a model of FITC-dextran diffusion through the endothelial monolayer as described in Example 3.
Cells were grown in 24-well plates (Greiner Bio-one, Austria) equipped with special inserts to form inner (upper) chambers with a porous bottom (the pore diameter of 0.4 μm, pore density of 10^8/cm^2) in DMEM until monolayer was formed (3-4 days). Successful monolayer was checked by measuring FITC-dextran diffusion for 1 hour through inserts with cell monolayers vs inserts without cells (‘blank’ inserts). Experiments were performed in triplicates when tight monolayers were formed. On the day of experiment, the cells were deprived for 1 h in DMEM supplemented with MLCK inhibitors or without inhibitors (control). After deprivation, FITC-dextran was added to the upper compartment to a final concentration of 0.05 mg/ml. In 30 and 60 min, a 10-μ1 aliquot was withdrawn from the lower compartment and mixed with 100 μl phosphate buffered saline pH 7.3 in a 96-well plate to estimate the endothelial monolayer baseline permeability. […] During the next 3 hrs, every 30 min, aliquots were taken from the lower compartment, and intensity of FITC fluorescence was measured using a Victor 3X plate reader (Perkin Elmer, USA) to plot the dynamics of the FITC fluorescence changes.
As shown, 100 nM thrombin induces the endothelial hyperpermeability response as reflected by an increase in 70 kDa FITC-dextran diffusion through the endothelial monolayer and an incremental increase in the fluorescence in the lower compartment of the diffusion chamber. […]

[2] = Acute toxicity in mice, single injection; format: in vivo; conditions: mouse, in vivo
Description: (§1) The study was conducted in 82 BALB/c mice (both males and females, body weight 18-24 g) obtained from the animal facility of the Scientific Center for Biomedical Technologies of the Federal Medico-Biological Agency of the Russian Federation (SCBMT). The animals were certified and otherwise healthy. The animals were kept in T-3 cages (5-10 animals per cage) with artificial 12 hrs light-dark cycles and 16× per hour forced air ventilation, temperature of 20-22° C. and 50-65% humidity on wood chips sterilized by hot air. The animals had free access to drinking water and PK-120-1 mouse cubes (GOST P50258-92; Laboratorsnab LLC, Russia).
(§2) PIK2 and PIK7 peptides were dissolved in water and administered to mice as a single intraperitoneal injection. The animals were followed for 14 days after peptide injections. An increasing dosage scheme was applied where each tested dose surpassed the previous dose by 50%. The lowest dose of the active substance was determined that caused animal death.

BALB/c mice = test: Acute toxicity in mice, single injection; format: in vivo
Description: as §1, §2

[3] = rabbit, in vivo, iv
Description: (§3) PIK2 dose of 5 mg/kg was calculated individually for each rabbit and administered into marginal ear vein in a final volume of 1.7-1.9 mL in sterile physiological saline. Stock concentration of the tested substance was 10 mg/mL.
(§4) During the 24-hrs testing period, the overall health status and behavior were monitored (appetite, motion activity, hair coat condition).
(§5) Before injection of test substances (baseline) and 4 hrs and 24 hrs after the injection, the following parameters were tested in whole venous blood samples (3.0-3.5 mL) collected from a marginal ear vein red blood cell (RBC) count, hematocrit, hemoglobin level, mean RBC volume, mean corpuscular hemoglobin, total leukocyte, lymphocyte, and granulocyte counts and their percentages, platelet count, and mean platelet volume. In parallel, the following biochemical parameters were measured in serum total protein, bilirubin, urea, creatinine, glucose, total cholesterol, triglycerides, and activities of alkaline phosphatase, lactate dehydrogenase, aspartate aminotransferase, and alanine aminotransferase. Blood cell count was performed using an Abacus junior vet (Austria) hematological cell counter; biochemical studies were performed using a Targa-2000 (Italy) instrument.

[4] = cited from earlier work
[5] = test system: endothelial hyperpermeability; conditions: cited from earlier work
lung edema in rats = conditions: cited from earlier work
in vivo = conditions: male, Chinchilla, rabbit, 5 mg/kg
Description: as §3, §4, §5

Chinchilla rabbits = test: Tolerance of a single intravenous injection in Chinchilla rabbits; conditions: i.v. 5 mg/kg
Description: as §3, §4, §5

[6] = target: smooth-muscle myosin light-chain kinase; conditions: Hunt et al., 1989; cited from earlier work
[7] = Peptide half-lives in human plasma in vitro (1H-NMR spectroscopy); format: in vitro ADME; conditions: human, plasma, 1H-NMR, 37° C., peptide 3 mg/ml; read-out: T1/2, half-life in human plasma in vitro
Description: Whole blood (100 mL) was collected from healthy donors to 50-mL tubes containing 5 mL of a preservative (130 mM citrate in phosphate buffered saline (PBS), pH 7.4). The blood was incubated for 15-20 min at room temperature followed by centrifugation at 1500 g for 15 min at 18° C. The supernatants were transferred to clear tubes and centrifuged as above. Dry NaBr was added to the plasma (280 mg per 1 mL of plasma). After dissolution of NaBr, the plasma (approx. 30 mL) was transferred to centrifuge tubes (Type 45Ti rotor, Beckman, USA) and layered with 20 mL of a solution (specific mass of […]), which was prepared as follows—11.42 g of NaCl and 100 mg of ethylenediaminetetraacetic acid (EDTA) were dissolved in distilled water in a final volume of 1 L (pH 7.4) and 281.44 g of NaBr was added. The plasma was centrifuged at 40,000 rpm for 48 hrs. The upper dark-yellow fraction containing lipoproteins and the colorless buffer fraction were discarded leaving approx. 1-cm high buffer above the apparent plasma border. Portions of plasma obtained from one donor were pooled and dialyzed for 36 hrs against 4 L of PSB free of Ca^2+ and Mg^2+(MP Biomedicals, USA) in dialysis bags with 12-14 kDa pore sizes. The dialysis procedure was repeated twice with fresh buffer changed every 24 hrs. After the dialysis, the plasma was centrifuged at 25,000 rpm (Type 45Ti rotor, Beckman, USA) for 15 min at 4° C. The supernatant fraction was collected and lyophilized. The dry matter was dissolved in D2O in a final volume equal to the plasma volume before NaBr was added, lyophilized again, dissolved in the same volume of D2O, and stored in 1-mL aliquots at −20° C. before use.
^1H-NMR spectroscopy was employed to analyze relative degradation of PIK7 (the claimed peptide) and MLC11-19 (the structural analogue) in human plasma. ^1H-NMR spectroscopy allows simultaneous direct monitoring the amounts of original full-length peptide and its fragments during the course of enzymatic hydrolysis (Isakova et al., 1986). Stability of a peptide, its degradation pathway(s) and a half-life estimate are available from a comparison of spectra obtained at different time points after the addition of a peptide to plasma. ^1H-NMR spectra were obtained using a WM-500 spectrometer (Bruker, Germany) at 37° C. Chemical shifts in ^1H-NMR spectra were measured relative to an internal standard (2,2-dimethyl-2-silapentane-5-sulfonate sodium salt). The signals were referenced by the double-resonance method. The resonances from peptide protons were identified by the differential spectroscopy method, i.e. the spectrum of blood plasma was subtracted from each spectrum obtained in the presence of peptide of interest. Peptide concentrations were 3 mg/ml.
These indicate the peptide N-terminus degradation. […] Therefore, the claimed peptide has an increased life-span in plasma that allows for long-lasting maintenance of its effective concentrations necessary to decrease the endothelial hyperpermeability under emergency conditions. Moreover, an increased life-time allows attaining the desired therapeutic effect with lower (as compared to homologues) peptide concentrations.

[8] = test system: MLC phosphorylation in neutrophils; conditions: Chilcoat et al., 2008; cited from earlier work
MLCK = MLCK (Homo sapiens, UniProt Q15746); conditions: in vitro; Sekridova et al., 2010 / RU 2402565; cited from earlier work

Compound: CN[C@@H](CCCNC(=N)N)C(=O)N[C@@H](CCCCN)C(=O)N[C@@H](CCCCN)C(=O)N[C@@H](Cc1ccc(O)cc1)C(=O)N[C@@H](CCCCN)C(=O)N[C@@H](Cc1ccc(O)cc1)C(=O)N[C@@H](CCCNC(=N)N)C(=O)N[C@H](CCCNC(=N)N)C(=O)N[C@@H](CCCCN)C(N)=O [PIK2, H—(N—Me)-Arg^1-Lys-Lys-Tyr-Lys-Tyr-Arg^7-D-Arg^8-Lys-NH2] (H-[NMeR]KKYKYR[dR]K-NH2)
- effect on thrombin-induced FITC-dextran hyperpermeability [1]: completely abolished the FITC-dextran hyperpermeability; also recorded: effectively abolished FITC-dextran hyperpermeability
- LD50 at 14 days ([2]; both sexes, BALB/c, intraperitoneal, mice, Table 3): 18 mg/kg
- LD50 ([2]; after single intravenous injection (as printed in b7), read-out: LD50 in mice): 18 mg/kg
- lowest dose of the active substance that caused animal death (BALB/c mice; BALB/c mice, single intraperitoneal injection, followed 14 days): 27 mg/kg
- signs after a toxic dose (BALB/c mice; mice, single intraperitoneal injection of a toxic dose): movement retardation and death within the following 24 hrs
- LD50 [3]: ≤ 5 mg/kg
- T1/2, half-life in human plasma in vitro ([4]; Khapchaev et al., 2016): >540 min
- stability, fold higher as compared to PIK1 ([4]; RU 2493164): 4 fold
- effect on thrombin-mediated endothelial hyperpermeability in vitro ([5]; peptide 20 μM): completely abolished the thrombin-mediated endothelial hyperpermeability
- effect on endothelial hyperpermeability response and lung edema (lung edema in rats): abrogation of the endothelial hyperpermeability response and lung edema in rats
- LD50 at 24 h (in vivo): 5 mg/kg
- mortality (Chinchilla rabbits; group of 4): two rabbits died on the 7th and 10th minute
- clinical signs after injection (Chinchilla rabbits; second minute after injection): irregular breathing, shortness of breath, muscular stiffness, prone position with straighten extremities

Compound: H-D-Lys-Lys-Arg-Ala-Ala-Arg-NH2 (H-[dK]KRAAR-NH2; SMILES C[C@H](NC(=O)[C@H](C)NC(=O)[C@H](CCCNC(=N)N)NC(=O)[C@H](CCCCN)NC(=O)[C@H](N)CCCCN)C(=O)N[C@@H](CCCNC(=N)N)C(N)=O) [RLC 11-16 hexapeptide with N-terminal L-Lys substituted with D-Lys]
- IC50 [6]: 180 µM

Compound: H-KKRAARATS-NH2 [MLC11-19, H-Lys-Lys-Arg-Ala-Ala-Arg-Ala-Thr-Ser-NH2]
- half-life [7]: 32 min
- effect on thrombin-induced FITC-dextran hyperpermeability [1]: completely abolished the FITC-dextran hyperpermeability; also recorded: effectively abolished FITC-dextran hyperpermeability
- effect on MLC phosphorylation in neutrophils [8]: decreases MLC phosphorylation in neutrophils

Compound: H-L-Lys-Lys-Arg-Ala-Ala-Arg-NH2 (H-KKRAAR-NH2)
- IC50 [6]: 22 µM

Compound: H-MeArg^1-Lys-Lys-Tyr-Lys-Tyr-Arg-Arg-Lys-NH2 (H-[NMeR]KKYKYRRK-NH2) [PIK1, L-PIK modified at the N-terminal amino acid]
- inhibitory activity compared to L-PIK (MLCK): comparable to that of L-PIK
- half-life in human plasma in vitro, fold higher as compared to L-PIK ([4]; RU 2402565): ~3 fold
- inhibition of thrombin-mediated endothelial hyperpermeability ([5]; peptide 100 μM): 1.6 fold
